Results: PubChem BioAssay AID449762 (Southern Research Specialized Biocontainment Screening …, 2010)
Results filed as inconclusive are left out.

system: M. tuberculosis H37Rv growth inhibition, 7H9 media; assay: M. tuberculosis growth inhibition, HTS (AID 449762); conditions: measured here: IC90 growth inhibition;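 further: bacterial growth assessed after seven days of incubation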

Question: How did the IC90 turn out when `C[C@]12C=CC(=O)C=C1CC[C@@H]1C2=CC[C@]2(C)[C@@H](C(=O)CN3CCN(c4cc(N5CCCC5)nc(N5CCCC5)n4)CC3)CC[C@@H]12` was run?
Answer: 30.4 µM

Question: For `CCCCOC(=O)CSc1nnc(-c2ccc(Cl)cc2Cl)o1`, which IC90 is on record?
Answer: 1.85 µM

Question: How did the IC90 turn out when `Cc1ccc(N2C(=O)C(F)(F)C2c2ccccc2)cc1` (stereo not given) was run?
Answer: 5.46 µM

Question: With `COc1ccc(C(=O)COC(=O)[C@H](C)Nc2ccc(C(F)(F)F)cc2[N+](=O)[O-])cc1` as the molecule, how does the IC90 read?
Answer: > 25 µM

Question: Which IC90 does the source give for `CCc1cccc2c(=O)c(C(=O)N3CCOCC3)c[nH]c12` here?
Answer: 14.2 µM

Question: Which IC90 does the source give for `NC(=S)N=Nc1ccc(NN=C(N)N)cc1` here?
Answer: 24.7 µM

Question: For `Cc1ccc(-c2ccc(C3C(C#N)=C(N)Oc4n[nH]c(C)c43)o2)cc1` (stereo not given), which IC90 is on record?
Answer: 52 µM

Question: With `O=c1c2ccc(Cl)cc2nc(-c2ccc([N+](=O)[O-])cc2)n1O` as the molecule, how does the IC90 read?
Answer: > 100 µM

Question: `Cc1nc2sccn2c1-c1nc(-c2cc3ccccc3o2)cs1` was tested. Which IC90 did it give?
Answer: 90.7 µM

Question: For `O=C(OCC(=O)N1CCN(c2ccccc2)CC1)c1cnc(Cl)c(Cl)c1`, which IC90 is on record?
Answer: 41.7 µM

Question: For `Cc1nnc(SCc2ccccc2Cl)n(N)c1=O`, which IC90 is on record?
Answer: 5.3 µM

Question: Which IC90 does the source give for `C[CH2][Hg][S]c1ccccc1C(=O)O` here?
Answer: 0.81 µM

Question: For `COc1cccc2c1C(=O)c1c(O)c3c(c(O)c1C2=O)C[C@@](O)(C(=O)CO)C[C@@H]3O[C@H]1C[C@H](N)[C@@H](O)[C@H](C)O1`, which IC90 is on record?
Answer: 4.86 µM

Question: `O=C(OCC(=O)N1CCCc2ccccc21)c1ccc(S(=O)(=O)C(F)F)cc1` was tested. Which IC90 did it give?
Answer: 38 µM

Question: With `Nc1c(N(CCC2=CCCCC2)C(=O)c2ccc([N+](=O)[O-])o2)c(=O)[nH]c(=O)n1Cc1ccccc1` as the molecule, how does the IC90 read?
Answer: 30.2 µM

Question: How did the IC90 turn out when `CC1C/C(=C\c2cccnc2)C(=O)/C(=C/c2cccnc2)C1` (stereo not given) was run?
Answer: 8.85 µM

Question: With `CN1CCN2c3ccccc3Cc3ccccc3C2C1` (stereo not given) as the molecule, how does the IC90 read?
Answer: > 100 µM

Question: For `O=C1C2C(C(=O)N1/N=C/c1ccc([N+](=O)[O-])o1)C1C=CC2C12CC2` (stereo not given), which IC90 is on record?
Answer: 29.6 µM

Question: For `O=C(NCC1CC1)c1cc([N+](=O)[O-])cc([N+](=O)[O-])c1`, which IC90 is on record?
Answer: 6.43 µM

Question: With `C/C(CC(=O)Nc1ccc(Cl)cc1C(F)(F)F)=N\NC(N)=S` as the molecule, how does the IC90 read?
Answer: 19.5 µM

Question: How did the IC90 turn out when `Nc1cc([N+](=O)[O-])cc2oc(-c3ccccc3)cc12` was run?
Answer: > 100 µM

Question: How did the IC90 turn out when `Cc1nc(N2CCC(C)CC2)c2oc3ccccc3c2n1` was run?
Answer: 45.4 µM

Question: With `Cc1ccc(-c2noc(C3CCCN(C(=O)c4ccc(C(C)(C)C)cc4)C3)n2)o1` (stereo not given) as the molecule, how does the IC90 read?
Answer: 55.2 µM

Question: Which IC90 does the source give for `O=C(OCc1ccc([N+](=O)[O-])cc1)c1cc2ccccc2oc1=O` here?
Answer: 23.6 µM

Question: `CCCNC1=C(N(C(C)=O)c2cccc(F)c2)C(=O)c2ccccc2C1=O` was tested. Which IC90 did it give?
Answer: 20.1 µM

Question: `CCN=c1scc(-c2ccco2)n1/N=C/c1ccc(OC)c(O)c1` was tested. Which IC90 did it give?
Answer: 41.8 µM

Question: For `Cc1ccc(CNC(=O)c2sc3nc4c(c(C(F)(F)F)c3c2N)CCC4)cc1`, which IC90 is on record?
Answer: 50.9 µM

Question: With `Cc1cc(C(=O)N[C@H](c2ccccc2)[C@@]2(C)C[C@@H]2[C@@H](C)C(=O)Nc2ccc3ccccc3c2)n(C)n1` as the molecule, how does the IC90 read?
Answer: 27.6 µM

Question: With `Cc1cccc(/C=C/C(=O)c2ccc([N+](=O)[O-])o2)c1` as the molecule, how does the IC90 read?
Answer: < 0.2 µM

Question: With `CN(Cc1ccc(Br)cc1)C(=O)CCN1C(=O)c2cccc([N+](=O)[O-])c2C1=O` as the molecule, how does the IC90 read?
Answer: > 100 µM

Question: For `CCC(=O)c1ccc(OCC(O)CN2CCN(c3cccc(C(F)(F)F)c3)CC2)cc1` (stereo not given), which IC90 is on record?
Answer: 28 µM

Question: `Cc1ccc(NCc2ccc(O)c3ncccc23)cc1C` was tested. Which IC90 did it give?
Answer: > 100 µM

Question: `CCCCCCCC(=O)N/N=C(/C)c1c(O)cc(C)oc1=O` was tested. Which IC90 did it give?
Answer: > 100 µM

Question: For `N#C/C(=C\c1ccc(-c2ccc(Br)cc2)o1)C(=O)NCCc1c[nH]c2ccccc12`, which IC90 is on record?
Answer: > 100 µM

Question: With `Oc1cccc(-c2nc3ccc4ccccc4c3c3c2CCC3)c1` as the molecule, how does the IC90 read?
Answer: 26.8 µM

Question: `CCOC(=O)c1sc2ncnc(NCC(c3cccs3)N(C)C)c2c1C` (stereo not given) was tested. Which IC90 did it give?
Answer: 71.6 µM

Question: `Cc1ccc(Cl)cc1N1CCN(C(=O)C2CCC(=O)N(C3CCCCCC3)C2)CC1` (stereo not given) was tested. Which IC90 did it give?
Answer: 28.6 µM

Question: How did the IC90 turn out when `COc1ccccc1C1c2ccc3ccccc3c2Oc2ncn(CCN(C)C)c(=N)c21` (stereo not given) was run?
Answer: 24.9 µM

Question: `CC(=NCc1ccc2c(c1)OCO2)C1=C(O)c2ccccc2C1=O` was tested. Which IC90 did it give?
Answer: > 100 µM

Question: `Cc1ccc(C)c(N2CCN(C(=O)c3ccc4nc(N5CCOCC5)sc4c3)CC2)c1` was tested. Which IC90 did it give?
Answer: 47.4 µM

Question: For `c1ccc(CSc2ccc(-c3ccccn3)nn2)cc1`, which IC90 is on record?
Answer: 26.9 µM

Question: Which IC90 does the source give for `CCc1ccc2[nH]c(=O)c(CN(CCCN3CCOCC3)C(=O)Nc3cccc(Cl)c3)cc2c1` here?
Answer: 30.4 µM

Question: For `COc1ccc(COc2cc(-c3cccc(OC)c3)nc3ccc(NC(=O)c4ccc(OC)cc4)cc23)cc1`, which IC90 is on record?
Answer: > 100 µM

Question: For `Cc1cccc(-c2ncc(CN3CCC(CO)(CCCc4ccccc4)CC3)cn2)c1`, which IC90 is on record?
Answer: 73.5 µM

Question: `CCCCOC(=O)c1c(C)oc2ccc(NS(=O)(=O)c3ccc4c5c(cccc35)C(=O)N4)cc12` was tested. Which IC90 did it give?
Answer: > 100 µM

Question: Which IC90 does the source give for `Cc1ccc2c(c1)c1ncnc(N3CCc4ccccc4C3)c1n2C` here?
Answer: > 100 µM

Question: For `O=C1/C(=N\S(=O)(=O)c2cccs2)C([n+]2ccc(CCCc3ccccc3)cc2)=C([O-])c2ccccc21`, which IC90 is on record?
Answer: 22.1 µM

Question: Which IC90 does the source give for `CN(C)S(=O)(=O)c1cccc(NC(=O)CSc2cccc3cccnc23)c1` here?
Answer: 65.1 µM

Question: Which IC90 does the source give for `c1nc2n(n1)C1=C(CCCC1)C1(CCCCC1)N2` here?
Answer: 30 µM

Question: How did the IC90 turn out when `COc1ccccc1/C=C/C(=O)Nc1ccc(S(=O)(=O)Nc2cc(C)on2)cc1` was run?
Answer: 17.3 µM

Question: Which IC90 does the source give for `COC(=O)C(C)Oc1ccc2c(c1)O/C(=C\c1ccco1)C2=O` (stereo not given) here?
Answer: 16 µM

Question: `Cc1cc(C)c2nc(-c3ccncc3)cc(C(=O)N3CCN(Cc4ccccc4Cl)CC3)c2c1` was tested. Which IC90 did it give?
Answer: 26.1 µM

Question: Which IC90 does the source give for `CCOc1ccc2nc(NC(=O)C34CC5CC(CC(NC(C)=O)(C5)C3)C4)sc2c1` here?
Answer: 28.4 µM

Question: `OCC(O)/C=N/Nc1nc(Nc2ccccc2)nc(Nc2ccccc2)n1` (stereo not given) was tested. Which IC90 did it give?
Answer: 12.5 µM

Question: With `CCN(CC)S(=O)(=O)c1ccc2oc(SCC(=O)Nc3cc(C)on3)nc2c1` as the molecule, how does the IC90 read?
Answer: 5.88 µM

Question: Which IC90 does the source give for `N#Cc1ccc(OCC(O)CN2CCN(c3ncc(C(F)(F)F)cc3Cl)CC2)cc1` (stereo not given) here?
Answer: 24 µM

Question: For `CCc1ccc(N=C2NC(=O)/C(=C/c3cc(OC)c(O)c(OC)c3)S2)cc1`, which IC90 is on record?
Answer: > 100 µM

Question: Which IC90 does the source give for `COc1cc2c(cc1NC(=O)CN1C(=O)NC3(CCc4ccccc43)C1=O)oc1ccccc12` (stereo not given) here?
Answer: > 100 µM

Question: Which IC90 does the source give for `COc1cc(/C=N/NC(=O)COc2ccc(C)cc2)ccc1OC(=O)c1cccs1` here?
Answer: 30.2 µM

Question: Which IC90 does the source give for `O=C(N/N=C/c1ccc([N+](=O)[O-])o1)c1sc2ccccc2c1Cl` here?
Answer: 4.6 µM

Question: For `O=C(N/N=C/c1c(F)c(F)c(F)c(F)c1F)c1cccc(S(=O)(=O)N2CCOCC2)c1`, which IC90 is on record?
Answer: > 100 µM

Question: How did the IC90 turn out when `c1ccc(-c2nc3c(ccc4ccccc43)[nH]2)nc1` was run?
Answer: 20.3 µM

Question: `CCOc1cc(-c2c(C#N)c(=O)[nH]c3c2c(C)nn3-c2ccc(F)cc2)ccc1O` was tested. Which IC90 did it give?
Answer: 4.98 µM

Question: For `O=C(NC(C(=O)N/N=C/c1cccc2ccccc12)c1n[nH]c(=O)c2ccccc12)c1ccccc1` (stereo not given), which IC90 is on record?
Answer: > 100 µM

Question: With `COc1ccc(-c2cc3c(=O)n(CC(=O)NCCCN4CCC(Cc5ccccc5)CC4)ncn3n2)cc1` as the molecule, how does the IC90 read?
Answer: 26.2 µM

Question: Which IC90 does the source give for `CNC[C@H](Cc1cccc2ccccc12)NC[C@H](CCSC)NCC1CCC(C(C)(C)C)CC1` (stereo not given in full) here?
Answer: 24.2 µM

Question: Which IC90 does the source give for `COc1cc(/C=C/c2cc[n+](C)cc2)ccc1OCC(=O)Nc1ccc(Cl)c(Cl)c1` here?
Answer: 23.5 µM

Question: With `COc1ccc(C(=O)C2CCCN(C3CSCCSC3)C2)c(C)c1` (stereo not given) as the molecule, how does the IC90 read?
Answer: 26.4 µM

Question: How did the IC90 turn out when `Cc1cc(/C=C\c2ccc3cc(N(C)C)ccc3[n+]2C)c(C)n1-c1ccccc1` was run?
Answer: 3.19 µM

Question: How did the IC90 turn out when `COCCN(C(=O)C1CC(=O)N(Cc2ccccc2)C1)c1nc(-c2ccc([N+](=O)[O-])cc2)cs1` (stereo not given) was run?
Answer: 25.4 µM

Question: `Cc1ccc(Nc2nc(CSc3nnc(-c4cccs4)o3)cs2)cc1` was tested. Which IC90 did it give?
Answer: > 100 µM

Question: For `Cc1ccc(C#CC[N+]2(CC#Cc3ccc(C)cc3)CCCCC2)cc1`, which IC90 is on record?
Answer: 14.4 µM

Question: `O=C(Nc1ccc([N+](=O)[O-])cc1)Nc1ccc(OC(F)F)c(Cl)c1` was tested. Which IC90 did it give?
Answer: 4.03 µM

Question: `O=C(CCl)Nc1sccc1C(=O)c1ccccc1` was tested. Which IC90 did it give?
Answer: 1.22 µM

Question: How did the IC90 turn out when `CC(C)Cn1c([N+](=O)[O-])nc2c1c(=O)[nH]c(=O)n2C` was run?
Answer: 8.91 µM

Question: Which IC90 does the source give for `Cc1ccc(O)c(C(=O)CC(=O)c2ccccc2Cl)c1` here?
Answer: 40.1 µM

Question: With `CC(=O)/C=C(\C)Nc1ccccc1O` as the molecule, how does the IC90 read?
Answer: 6.18 µM

Question: Which IC90 does the source give for `Cn1ncnc2c(=O)n(C)c(=O)nc1-2` here?
Answer: 2.62 µM

Question: With `COc1ccc(OCc2cccc(C(=O)Nn3cc([N+](=O)[O-])cn3)c2)cc1` as the molecule, how does the IC90 read?
Answer: 36.5 µM

Question: How did the IC90 turn out when `c1ccc(Cn2nnc3c(N4CCc5ccccc5C4)ncnc32)cc1` was run?
Answer: 72.8 µM

Question: How did the IC90 turn out when `Cc1cccc(/C=C/c2onc(C)c2[N+](=O)[O-])n1` was run?
Answer: 19.1 µM

Question: `Cc1ccc(N(CCC#N)C(=O)CCl)cc1C` was tested. Which IC90 did it give?
Answer: 4.41 µM

Question: For `Cc1ccc(/C=C2\SC(N3CCCC3)=NC2=O)cc1`, which IC90 is on record?
Answer: 1.68 µM

Question: Which IC90 does the source give for `Cc1ccc(/C=C/S(=O)(=O)NCC(=O)OCC(=O)Nc2c(F)cccc2F)cc1` here?
Answer: 13.2 µM

Question: Which IC90 does the source give for `Fc1cccc(CCN2CCNC[C@H]2Cc2cccc3ccccc23)c1` here?
Answer: 43.2 µM
